# Laboratory results: US7232912B2, “Indazole compounds, pharmaceutical compositions, and methods for mediating or inhibiting cell proliferation” (Agouron Pharmaceuticals, Inc., priority 2000, dated 2007)
# Tests used:
# Type in all cases: biochemical
# FGFR1 tyrosine kinase = molecular target: T1, FGFR1 tyrosine kinase (Homo sapiens, UniProt P11362, C488A/C584S/L457V); assay: Inhibition of phosphorylated FGF receptor tyrosine kinase activity; conditions: for inhibition at 1 µM: read-out: FGF % Inhib. at 1 μM
# T1 construct: the cytosolic domain of FGFR1 tyrosine kinase (amino acids 456–766); made in house; host or cells: Sf9 insect cells (baculovirus)
# How it was run: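 Phosphorylated Sf9-expressed kinases, FGFR1 (aa 456–766) at 100 nM and LCK (aa 223–509) at 50 nM, with 100 μM ATP and poly(Glu,Tyr) 4:1 at 5.1 (FGFR) or 25 mM (LCK), pH 7.5, 37° C. Pyruvate kinase/LDH-coupled NADH loss read at 340 nm under initial-rate conditions; % inhibition versus 2% DMSO control.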
# CDK4/cyclin D3 = CDK4/cyclin D3 (Homo sapiens, UniProt P11802); assay: Inhibition of CDK4/Cyclin D Retinoblastoma Kinase Activity; conditions: apparent Ki
# How it was run: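 Human CDK4/cyclin D3 (full-length or cyclin D3 1–264), insect-cell expressed, at 5 or 50 nM with His-tagged Rb 386–928 substrate, 25 μM ATP plus [32P/33P]ATP, pH 7.4, 2% DMSO, 30 °C for 20 min; tight binders used 5 nM enzyme for 60 min. Filter-captured phospho-Rb quantified by phosphorimager. Apparent Ki from competitive or tight-binding inhibition fits.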
# CDK2/cyclin A = molecular target: T2, CDK2/cyclin A (Homo sapiens, UniProt P24941); assay: Inhibition of CDK2/Cyclin A Retinoblastoma Kinase Activity; conditions: apparent Ki
# T2 construct: made in house; host or cells: CDK2: insect cells (baculovirus); cyclin A: E. coli
# How it was run: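 Baculovirus-expressed CDK2 complexed with proteolyzed cyclin A, at 150 nM or 5 nM, phosphorylating an Rb fragment with 25 µM [32/33P]ATP in HEPES pH 7.4, 2% DMSO. Reactions run 20 min at 30°C, EDTA-stopped, filter-captured; apparent Ki from competitive or tight-binding competitive fits.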
# T1 sequence (P11362 456-766 L457V/C488A/C584S): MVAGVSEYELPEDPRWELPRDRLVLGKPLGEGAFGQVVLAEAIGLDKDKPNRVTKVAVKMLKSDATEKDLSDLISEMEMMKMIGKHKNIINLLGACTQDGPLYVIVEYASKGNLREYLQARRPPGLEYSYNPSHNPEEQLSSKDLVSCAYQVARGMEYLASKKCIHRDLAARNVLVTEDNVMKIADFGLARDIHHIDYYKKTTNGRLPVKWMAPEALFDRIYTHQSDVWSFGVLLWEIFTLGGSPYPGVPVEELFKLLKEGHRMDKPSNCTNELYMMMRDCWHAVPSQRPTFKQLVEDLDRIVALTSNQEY
# Chain of CDK4/cyclin D3 (P11802 2-303 limits assumed): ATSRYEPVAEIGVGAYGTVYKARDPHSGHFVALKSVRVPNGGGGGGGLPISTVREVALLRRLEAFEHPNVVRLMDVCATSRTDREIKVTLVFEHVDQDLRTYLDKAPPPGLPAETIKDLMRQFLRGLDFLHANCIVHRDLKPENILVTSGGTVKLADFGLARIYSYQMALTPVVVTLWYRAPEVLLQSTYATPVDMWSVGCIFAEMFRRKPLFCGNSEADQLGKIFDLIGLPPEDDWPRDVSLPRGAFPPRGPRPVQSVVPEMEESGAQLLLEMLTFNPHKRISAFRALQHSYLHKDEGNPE
# Chain of CDK4/cyclin D3 (P30281 1-264 limits assumed, further chain): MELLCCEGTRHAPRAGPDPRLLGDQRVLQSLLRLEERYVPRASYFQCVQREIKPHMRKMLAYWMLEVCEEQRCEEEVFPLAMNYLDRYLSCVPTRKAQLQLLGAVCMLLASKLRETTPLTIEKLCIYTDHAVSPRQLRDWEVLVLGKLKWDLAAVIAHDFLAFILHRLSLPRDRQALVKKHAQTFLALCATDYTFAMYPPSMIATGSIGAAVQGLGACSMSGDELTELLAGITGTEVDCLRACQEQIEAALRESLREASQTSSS
Compound,inhibition at 1 µM (FGFR1 tyrosine kinase),Ki (CDK4/cyclin D3),Ki (CDK2/cyclin A),Ki (FGFR1 tyrosine kinase)
"Cc1c(O)cccc1-c1ccc2[nH]nc(-c3nc4ccccc4[nH]3)c2c1 [10′, 3-[3-(1H-Benzoimidazol-2-yl)-1H-indazol-5-yl]-2-methyl-phenol]",61%,74 nM,33 nM,
"Cc1c(O)cccc1-c1ccc2[nH]nc(/C=C/c3ccccc3)c2c1 [15′, 2-Methyl-3-[3-((E)-styryl)-1H-indazol-5-yl]-phenol]",87%,18 nM,62 nM,
"Fc1ccccc1-c1ccc2[nH]nc(-c3nc4ccccc4[nH]3)c2c1 [Example 6, 3-(1H-Benzoimidazol-2-yl)-5-(2-fluorophenyl)-1H-Indazole]",53%,200 nM,160 nM,
C(=C\c1n[nH]c2ccc(-c3cncc4ccccc34)cc12)/c1ccccc1 [Example 16],,35 nM,15 nM,1000 nM
"OCc1cccc2[nH]c(-c3n[nH]c4ccc(-c5cncc6ccccc56)cc34)nc12 [Example 29, [2-(5-Isoquinolin-4-yl-1H-indazol-3-yl)-1H-benzoimidazol-4-yl]-methanol]",,7.7 nM,0.47 nM,2200 nM
"CN(C)Cc1cccc2[nH]c(-c3n[nH]c4ccc(-c5cncc6ccccc56)cc34)nc12 [Example 31, [2-(5-Isoquinolin-4-yl-1H-indazol-3-yl)-1H-benzoimidazol-4-ylmethyl]-dimethyl-amine]",55.5%,0.37 nM,0.21 nM,
"CCN(CC)Cc1cccc2[nH]c(-c3n[nH]c4ccc(-c5cncc6ccccc56)cc34)nc12 [Example 36, Diethyl-[2-(5-isoquinolin-4-yl-1H-indazol-3-yl)-1H-benzoimidazol-4-ylmethyl]-amine]",55.8%,2.3 nM,1 nM,
"CCNCc1cccc2[nH]c(-c3n[nH]c4ccc(-c5cncc6ccccc56)cc34)nc12 [Example 37, Ethyl-[2-(5-isoquinolin-4-yl-1H-indazol-3-yl)-1H-benzoimidazol-4-ylmethyl]-amine]",34.4%,0.76 nM,0.22 nM,
"CC(C)NCc1cccc2[nH]c(-c3n[nH]c4ccc(-c5cncc6ccccc56)cc34)nc12 [Example 38, Isopropyl-[2-(5-isoquinolin-4-yl-1H-indazol-3-yl)-1H-benzoimidazol-4-ylmethyl]-amine]",42.4%,0.798 nM,1 nM,
"CCc1cncc(-c2ccc3[nH]nc(/C=C/c4ccccc4)c3c2)c1Cl [Example 46, 5-(4-Chloro-5-ethyl-pyridin-3-yl)-3-(E)-styryl-1H-indazole]",50.5%,30 nM,28 nM,
"c1ccc2[nH]c(-c3n[nH]c4ccc(-c5cccc6[nH]ccc56)cc34)nc2c1 [Example 48, 3-(1H-Benzoimidazol-2-yl)-5-(1H-indol-4-yl)-1H-indazole]",68.5%,21 nM,55 nM,
"Clc1ccncc1-c1ccc2[nH]nc(-c3nc4ccccc4[nH]3)c2c1 [Example 52, 3-(1H-Benzoimidazol-2-yl)-5-(4-chloro-pyridin-3-yl)-1H-indazole]",55%,3.5 nM,2.6 nM,
"Cc1c(-c2ccncc2)cncc1-c1ccc2[nH]nc(-c3nc4ccccc4[nH]3)c2c1 [Example 53, 5-[3-(1H-Benzoimidazol-2-yl)-1H-indazol-5-yl]-4-methyl-[3,4′]bipyridinyl]",32%,2.6 nM,0.29 nM,
c1ccc2[nH]c(-c3n[nH]c4ccc(-c5cncc6c5CCCN6)cc34)nc2c1 [Example 54],81.5%,26 nM,0.27 nM,
"O=C(Nc1cccc2c(-c3ccc4[nH]nc(-c5nc6ccccc6[nH]5)c4c3)cncc12)c1cccnc1 [Example 55, N-{4-[3-(1H-Benzoimidazol-2-yl)-1H-indazol-5-yl]-isoquinolin-8-yl}-nicotinamide]",83.6%,41 nM,1.1 nM,
Cc1c(-c2cccnc2)cncc1-c1ccc2[nH]nc(-c3nc4ccccc4[nH]3)c2c1 [Example 58],20.3%,6.7 nM,1 nM,3000 nM
"Cc1c(/C=C/CO)cncc1-c1ccc2[nH]nc(-c3nc4ccccc4[nH]3)c2c1 [Example 59, (E)-3-{5-[3-(1H-Benzoimidazol-2-yl)-1H-indazol-5-yl]-4-methyl-pyridin-3-yl}-prop-2-en-1-ol]",47.6%,1.6 nM,0.58 nM,
"Cc1c(CCCO)cncc1-c1ccc2[nH]nc(-c3nc4ccccc4[nH]3)c2c1 [Example 60, (E)-3-{5-[3-(1H-Benzoimidazol-2-yl)-1H-indazol-5-yl]-4-methyl-pyridin-3-yl}-propan-1-ol]",40.8%,1.6 nM,0.6 nM,
"CCc1c(-c2ccncc2)cncc1-c1ccc2[nH]nc(-c3nc4ccccc4[nH]3)c2c1 [Example 61, 5-[3-(1H-Benzoimidazol-2yl)-1H-indazol-5-yl]-4ethyl-[3,4′]bipyridinyl]",60.7%,17 nM,1.2 nM,480 nM
"Cc1c(-c2cccc(CO)c2)cncc1-c1ccc2[nH]nc(-c3nc4ccccc4[nH]3)c2c1 [Example 69, (3-{5-[3-(1H-Benzoimidazol-2-yl)-1H-indazol-5-yl]-4-methyl-pyridin-3-yl}-phenyl)-methanol]",25.6%,15 nM,4.1 nM,
"CS(=O)(=O)Nc1ccc2nc(-c3n[nH]c4ccc(-c5cncc6ccccc56)cc34)[nH]c2c1 [Example 70, N-[2-(5-Isoquinolin-4-yl-1H-indazol-3-yl)-3H-benzoimidazol-5-yl]-methanesulfonamide]",63%,1.8 nM,0.23 nM,
"Cc1c(-c2ccncc2)cncc1-c1ccc2[nH]nc(-c3nc4ccc(NS(C)(=O)=O)cc4[nH]3)c2c1 [Example 71, N-{2-[5-(4-methyl-[3,4′]bipyridinyl-5-yl)-1H-indazol-3-yl)-3H-benzoimidazol-5-yl]-methanesulfonamide]",28.8%,0.85 nM,1 nM,
"Cc1c(CO)cncc1-c1ccc2[nH]nc(-c3nc4ccccc4[nH]3)c2c1 [Example 72, {5-[3-(1H-Benzoimidazol-2-yl)-1H-indazol-5-yl]-4-methyl-pyridin-3-yl}-methanol]",48.6%,12 nM,7.6 nM,
"Cc1c(CN(C)C)cncc1-c1ccc2[nH]nc(-c3nc4ccccc4[nH]3)c2c1 [Example 73, {5-[3-(1H-Benzoimidazol-2-yl)-1H-indazol-5-yl]-4-methyl-pyridin-3-ylmethyl}-dimethyl-amine]",42.9%,6.9 nM,2.7 nM,
"CCNCc1cncc(-c2ccc3[nH]nc(-c4nc5ccccc5[nH]4)c3c2)c1C [Example 74, {5-[3-(1H-Benzoimidazol-2-yl)-1H-indazol-5-yl]-4-methyl-pyridin-3-ylmethyl}-ethyl-amine]",82.6%,0.52 nM,1.6 nM,
